The structures appear in SMILES notation. “And” between values parts separate entries of the source, which are not always exact repeats. Equal entries are not always repeated. Toxic doses and inconclusive results are not listed.

The assay has as its system P388 leukemia ip, CD2F1 mice, survival T/C. The experiment in a line: NCI In Vivo Anticancer Drug Screen. Data for tumor model P388 Leukemia (intraperitoneal) in CD2F1 (CDF1) mice. To be noted: endpoint: median survival time, higher = longer survival. The method in brief:
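Mice carrying the transplanted tumor received test compound or vehicle. Survival was recorded in each group, and the value is the treated-group measurement divided by that of the vehicle-treated control group.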

Where [1] appears, read: dose: 60.0 mg/kg/injection, schedule: Q01DX005 (ip), vehicle: saline with Tween-80.
Where [2] appears, read: dose: 120.0 mg/kg/injection, schedule: Q01DX005 (ip), vehicle: saline with Tween-80.
Where [3] appears, read: dose: 240.0 mg/kg/injection, schedule: Q01DX005 (ip), vehicle: saline with Tween-80.
[4] abbreviates: dose: 12.5 mg/kg/injection, schedule: Q01DX009 (ip), vehicle: saline with Tween-80.
Setting [5] is: dose: 25.0 mg/kg/injection, schedule: Q01DX009 (ip), vehicle: saline with Tween-80.
The mark [6] stands for this setting: dose: 50.0 mg/kg/injection, schedule: Q01DX009 (ip), vehicle: saline with Tween-80.
Setting [7] is: dose: 50.0 mg/kg/injection, schedule: Q01DX005 (ip), vehicle: saline with Tween-80.
The mark [8] stands for this setting: dose: 50.0 mg/kg/injection, schedule: Q01DX009 (ip), vehicle: Klucel (hydroxypropylcellulose) (HPC).
[9] abbreviates: dose: 100.0 mg/kg/injection, schedule: Q01DX009 (ip), vehicle: Klucel (hydroxypropylcellulose) (HPC).
Setting [10] is: dose: 60.0 mg/kg/injection, schedule: Q01DX005 (ip), vehicle: Klucel (hydroxypropylcellulose) (HPC).
Where [11] appears, read: dose: 120.0 mg/kg/injection, schedule: Q01DX005 (ip), vehicle: Klucel (hydroxypropylcellulose) (HPC).
Setting [12] is: dose: 240.0 mg/kg/injection, schedule: Q01DX005 (ip), vehicle: Klucel (hydroxypropylcellulose) (HPC).

For `COCCN=NNc1ccc(C#N)cc1`, the T/C by setting is: (dose: 12.5 mg/kg/injection, schedule: Q01DX009 (ip), vehicle: distilled water + Tween-80) 100 % of control; (dose: 25.0 mg/kg/injection, schedule: Q01DX009 (ip), vehicle: distilled water + Tween-80) 105 % of control; (dose: 50.0 mg/kg/injection, schedule: Q01DX009 (ip), vehicle: distilled water + Tween-80) 101 % of control; (dose: 100.0 mg/kg/injection, schedule: Q01DX009 (ip), vehicle: distilled water + Tween-80) 97 % of control.

As to `COc1ccccc1/C(C)=N/O`, the T/C under setting [1] was 100 % of control, the T/C under setting [2] is 95 % of control and the T/C under setting [3] is 103 % of control.

Consider `CCOc1ccc(C(C#N)N(C)C)cc1OCC` (centres undefined), for which the T/C under setting [4] was 105 % of control; the T/C under setting [5] is 100 % of control; the T/C under setting [6] is 86 % of control and 92 % of control.

As to `O=C1[O][Sn]2([Cl])[NH]C1C[S]2` (centres undefined), the T/C (dose: 50.0 mg/kg/injection, schedule: Q01DX005 (ip), vehicle: Klucel (hydroxypropylcellulose) (HPC)) was 100 % of control and the T/C (dose: 100.0 mg/kg/injection, schedule: Q01DX005 (ip), vehicle: Klucel (hydroxypropylcellulose) (HPC)) is 102 % of control.

With `CCOC(=O)N1C=CC=C(Br)C1C#N` (centres undefined), the T/C under setting [7] was 114 % of control.

In the case of `COc1c(C(C)C)cc2c(c1OC)C13CCCC(C)(C)C1C(OC3=O)C2NC(=O)CN1CCN(CCO)CC1` (centres undefined), the T/C by setting is: (dose: 25.0 mg/kg/injection, schedule: Q01DX009 (ip), vehicle: Klucel (hydroxypropylcellulose) (HPC)) 106 % of control; under setting [8], 97 % of control; under setting [9], 88 % of control.

In the case of `O=c1[nH]c2ccccc2nc1C1(F)CCCC1`, the T/C runs as follows: under setting [1], 98 % of control; under setting [2], 92 % of control; under setting [3], 89 % of control.

Consider `Cc1cnc(N)c(S(=O)(=O)O)c1`, for which the T/C was 86 % of control (dose: 25.0 mg/kg/injection, schedule: Q01DX009 (ip), vehicle: saline) and 88 % of control (dose: 50.0 mg/kg/injection, schedule: Q01DX009 (ip), vehicle: saline).

Take `C=CCC1=C(C2CO2)C(=O)c2ccccc2C1=O` (centres undefined): the T/C by setting is: (dose: 6.25 mg/kg/injection, schedule: Q01DX005 (ip), vehicle: Klucel (hydroxypropylcellulose) (HPC)) 99 % of control; (dose: 12.5 mg/kg/injection, schedule: Q01DX005 (ip), vehicle: Klucel (hydroxypropylcellulose) (HPC)) 99 % of control.

Take `CC(=O)OC1C2C3C2C2C1C32` (centres undefined): the T/C by setting is: (dose: 100.0 mg/kg/injection, schedule: Q04DX002 (ip), vehicle: other) 113 % of control; (dose: 200.0 mg/kg/injection, schedule: Q04DX002 (ip), vehicle: other) 106 % of control; (dose: 400.0 mg/kg/injection, schedule: Q04DX002 (ip), vehicle: other) 103 % of control.

On to `Cc1cc(C)cc(C(=O)N=C(c2ccncc2)c2nc(-c3ccccc3)oc2O)c1`, for which the T/C by setting is: under setting [1], 88 % of control; under setting [2], 86 % of control; under setting [3], 88 % of control.

On to `C[Si](C)(C)CN1CCCC1`, for which the T/C is, setting by setting: (dose: 50.0 mg/kg/injection, schedule: Q01DX005 (ip), vehicle: saline) 108 % of control; (dose: 100.0 mg/kg/injection, schedule: Q01DX005 (ip), vehicle: saline) 101 % of control.

Take `N#CC(Cc1ccccc1Cl)C(=O)O` (centres undefined): the T/C is 99 % of control (dose: 12.5 mg/kg/injection, schedule: Q01DX009 (none), vehicle: saline); 92 % of control (dose: 25.0 mg/kg/injection, schedule: Q01DX009 (none), vehicle: saline); 90 % of control (dose: 50.0 mg/kg/injection, schedule: Q01DX009 (none), vehicle: saline); 90 % of control (dose: 100.0 mg/kg/injection, schedule: Q01DX009 (none), vehicle: saline).

As for `Cc1c(C(N)=O)c2ccccc2c2ccccc12`, the T/C reads like this: (dose: 12.5 mg/kg/injection, schedule: Q01DX005 (ip), vehicle: saline with Tween-80) 109 % of control; (dose: 25.0 mg/kg/injection, schedule: Q01DX005 (ip), vehicle: saline with Tween-80) 95 % of control; under setting [7], 93 % of control and 95 % of control.

For the compound `COC(=O)CCC1=C(C)c2cc3cc(C)c(cc4cc(C)c(cc5nc(cc1n2)C(CCC(=O)OC)=C5C)[nH]4)[nH]3`, the T/C was 96 % of control (dose: 0.75 mg/kg/injection, schedule: Q01DX005 (ip), vehicle: saline with Tween-80); 98 % of control (dose: 1.5 mg/kg/injection, schedule: Q01DX005 (ip), vehicle: saline with Tween-80); 91 % of control (dose: 3.0 mg/kg/injection, schedule: Q01DX005 (ip), vehicle: saline with Tween-80); 90 % of control (dose: 3.12 mg/kg/injection, schedule: Q01DX005 (ip), vehicle: saline with Tween-80).

Turning to `O=C(/C=C/C1N=C1c1ccccc1)c1ccccc1` (centres undefined), the T/C was 100 % of control (dose: 25.0 mg/kg/injection, schedule: Q01DX001 (ip), vehicle: Klucel (hydroxypropylcellulose) (HPC)); 107 % of control (dose: 50.0 mg/kg/injection, schedule: Q01DX001 (ip), vehicle: Klucel (hydroxypropylcellulose) (HPC)); 106 % of control and 107 % of control (dose: 100.0 mg/kg/injection, schedule: Q01DX001 (ip), vehicle: Klucel (hydroxypropylcellulose) (HPC)).

Regarding `C[N+]12CCN(CC1)CC2`, the T/C is 104 % of control (dose: 100.0 mg/kg/injection, schedule: Q04DX003 (ip), vehicle: saline); 95 % of control (dose: 200.0 mg/kg/injection, schedule: Q04DX003 (ip), vehicle: saline); 100 % of control (dose: 400.0 mg/kg/injection, schedule: Q04DX003 (ip), vehicle: saline).

`O=c1c2ccccc2nc2n1CCC/C2=C\c1ccc2c(c1)OCO2`: the T/C was 100 % of control (dose: 91.75 mg/kg/injection, schedule: Q04DX002 (ip), vehicle: Klucel (hydroxypropylcellulose) (HPC)); 103 % of control (dose: 183.5 mg/kg/injection, schedule: Q04DX002 (ip), vehicle: Klucel (hydroxypropylcellulose) (HPC)); 102 % of control (dose: 367.0 mg/kg/injection, schedule: Q04DX002 (ip), vehicle: Klucel (hydroxypropylcellulose) (HPC)).

Regarding `CN(C)C(=O)Oc1c(Cc2ccccc2)c(=O)n2c([nH]c3ccccc32)c1C#N`, the T/C under setting [1] was 89 % of control and the T/C under setting [2] is 92 % of control.

On to `Cc1cc(NC(=O)COCC(=O)O)no1`, for which the T/C was 101 % of control under setting [10], 101 % of control under setting [11] and 92 % of control under setting [12].

For `CCOC(=O)c1cc2nc3ccccn3c(=O)c2cc1N`, the T/C runs as follows: under setting [4], 105 % of control and 93 % of control; under setting [5], 87 % of control and 90 % of control; under setting [6], 92 % of control; (dose: 100.0 mg/kg/injection, schedule: Q01DX009 (ip), vehicle: saline with Tween-80) 86 % of control and 96 % of control.

For `O=C1CSC(=S)N1c1ccc(Br)cc1`, the T/C was 106 % of control under setting [8]; 105 % of control under setting [9]; 108 % of control (dose: 200.0 mg/kg/injection, schedule: Q01DX009 (ip), vehicle: Klucel (hydroxypropylcellulose) (HPC)).

As to `O=C1C=C(Nc2ncccn2)c2ccccc2C1=O`, the T/C runs as follows: (dose: 6.25 mg/kg/injection, schedule: Q01DX005 (ip), vehicle: Klucel + Tween-80) 115 % of control; (dose: 12.5 mg/kg/injection, schedule: Q01DX005 (ip), vehicle: Klucel + Tween-80) 98 % of control; (dose: 25.0 mg/kg/injection, schedule: Q01DX005 (ip), vehicle: Klucel + Tween-80) 104 % of control.

Turning to `CCOC(=O)COc1ccc2c(C)cc(=O)oc2c1[N+](=O)[O-]`, the T/C was 102 % of control under setting [1], 99 % of control under setting [2] and 98 % of control under setting [3].

Regarding `O=C(NC1CC(c2ccccc2)(c2ccccc2)OC1=O)OCc1ccccc1` (centres undefined), the T/C runs as follows: under setting [4], 90 % of control; under setting [5], 93 % of control; under setting [6], 90 % of control and 93 % of control; (dose: 200.0 mg/kg/injection, schedule: Q01DX009 (ip), vehicle: saline with Tween-80) 93 % of control.

Take `CCOC(=O)c1cnc2cc(C(F)(F)F)ccc2c1Nc1ccc2c(c1)OCO2`: the T/C by setting is: under setting [10], 100 % of control; under setting [11], 102 % of control; under setting [12], 98 % of control.

Turning to `c1ccc2oc(C34OC5CC(CC(C5)O3)O4)nc2c1`, the T/C reads like this: (dose: 100.0 mg/kg/injection, schedule: Q01DX001 (ip), vehicle: saline with Tween-80) 101 % of control; (dose: 200.0 mg/kg/injection, schedule: Q01DX001 (ip), vehicle: saline with Tween-80) 99 % of control; (dose: 400.0 mg/kg/injection, schedule: Q01DX001 (ip), vehicle: saline with Tween-80) 100 % of control.
